# Values of other authors, collected in US20230157586A1 (United States Government as Represented by the Department …, priority 2021, published 2023).
# Positions count from the first letter of the chain named.
# Tests used:
# [1] = target: T1, corticosteroid binding globulin (CBG) (Homo sapiens, UniProt P08185); conditions: 37° C.; same for each subject
# T1 sequence (P08185 23-405): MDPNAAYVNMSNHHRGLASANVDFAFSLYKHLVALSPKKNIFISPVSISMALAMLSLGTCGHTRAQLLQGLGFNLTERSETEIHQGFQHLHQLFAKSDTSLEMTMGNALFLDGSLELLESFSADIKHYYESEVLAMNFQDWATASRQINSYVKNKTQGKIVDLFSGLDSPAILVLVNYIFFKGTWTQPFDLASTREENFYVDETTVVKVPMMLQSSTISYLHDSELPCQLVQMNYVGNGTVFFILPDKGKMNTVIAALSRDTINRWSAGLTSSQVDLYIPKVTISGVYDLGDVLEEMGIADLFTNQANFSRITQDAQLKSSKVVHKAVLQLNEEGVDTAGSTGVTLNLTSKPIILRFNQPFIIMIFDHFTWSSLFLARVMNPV
# albumin = albumin (Homo sapiens, UniProt P02768); conditions: 37° C.; same for each subject
# Sequence of albumin (P02768 25-609): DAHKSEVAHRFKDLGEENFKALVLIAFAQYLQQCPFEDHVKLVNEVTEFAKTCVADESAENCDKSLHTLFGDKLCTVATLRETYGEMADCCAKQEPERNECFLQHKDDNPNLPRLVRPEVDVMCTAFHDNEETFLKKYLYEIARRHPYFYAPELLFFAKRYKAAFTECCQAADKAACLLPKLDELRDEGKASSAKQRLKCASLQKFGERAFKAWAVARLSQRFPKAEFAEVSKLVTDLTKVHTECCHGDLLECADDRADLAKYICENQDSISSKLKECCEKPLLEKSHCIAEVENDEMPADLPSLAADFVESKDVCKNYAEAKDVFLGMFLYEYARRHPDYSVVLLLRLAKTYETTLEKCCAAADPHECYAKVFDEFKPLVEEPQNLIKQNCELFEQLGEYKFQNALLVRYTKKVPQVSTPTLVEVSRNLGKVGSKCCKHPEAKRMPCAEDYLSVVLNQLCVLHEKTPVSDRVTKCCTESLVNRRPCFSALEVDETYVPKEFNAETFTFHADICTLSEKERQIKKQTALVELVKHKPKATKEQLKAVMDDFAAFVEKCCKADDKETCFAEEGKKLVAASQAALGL
# [2] = target: T2, mutant CBG protein (GLy237Val substitution, SERPINA6) (Homo sapiens, UniProt P08185, G259V); conditions: previously reported; higher equilibrium dissociation constant KD
# T2 sequence (P08185 23-405 G259V): T1 sequence (P08185 23-405) with G237V
smiles,measurement,setting,value
C[C@]12CCC(=O)C=C1CC[C@@H]1[C@@H]2[C@@H](O)C[C@@]2(C)[C@H]1CC[C@]2(O)C(=O)CO [cortisol],"κ1^C association rate constant (on-rate), CBG",[1],3.62e+07 M/s
same,"κ−1^C dissociation rate constant (off-rate), CBG",[1],0.88 s⁻¹
same,"κ1^A association rate constant (on-rate), albumin",albumin,8950 M/s
same,"κ−1^A dissociation rate constant (off-rate), albumin",albumin,2.2 s⁻¹
same,cortisol binding affinity of mutant CBG compared to wild type CBG protein,[2],markedly decreased cortisol binding affinity
